Results from patent publication US20260256830A1, “PERITONEAL DIALYSIS FLUID” (ZYTOPROTEC FLEXIBLE KAPITALGESELLSCHAFT, priority 2022, published 2026).
Peptide text beside a SMILES is read from it.

Test: Long-term stability of AGD in alkaline solution (amino acid analysis)
Format: physicochemical
Conditions: 52 weeks; for AGD, % of original amount after storage: 25° C./60% rH
Experimental: The long-term stability tests of AGD in an alkaline solution according to the present invention have been performed. […] The pH of each sample was adjusted with 1 M NaOH. Aliquots of each sample were prepared under controlled conditions and stored under the defined conditions at 25° C./60% rH. Sterilization was performed under following conditions: The stability of AGD has been investigated by AS analysis. Analysis was performed by […] amino acid analysis with JEX and post column derivatization with Ninhydrine.

C[C@H](N)C(=O)N[C@@H](CCC(N)=O)C(=O)O [AGD, L-alanyl-L-glutamine] (H-Ala-Gln-OH)
decrease of the AGD, of original amount (both samples (pH 7.4 and 7.8), storage at 25° C./60% rH): less than 5%
AGD, % of original amount after storage (sample with pH-value of 7.4): 98%
AGD, % of original amount after storage (sample with pH-value of 7.8): > 95%
